Assay results: patent US5168102A, “Endocrine manipulation to improve body composition of poultry” (priority 1990, dated 1992)
Several values for one entry are separate records, joined by “and”; a condition that tells them apart may be missing. Identical values can stand only once. Entries after “also recorded” stand apart in the source; their conditions may differ. Like-named read-outs stand apart in the source and are kept apart here.

Columns and labels:
[1] = Example 3: final body weight and relative weights of liver, abdominal fat and muscles; assay type: in vivo, broiler cockerels
Procedure: Day-old broiler cockerels were randomly assigned to 24 pens (5 birds/pen) in a battery brooder. The total duration of the bird management period lasted from 7 to 8 weeks. Hereafter, the end of the first week of life of the birds is referred to as week no. 1 (i.e. 7 days of life), the end of the second week as week no. 2, etc. At week no. 3, four birds from each pen were transferred to wire grow-out cages. […] 5 to week no. 7 (4 pens/treatment). Body weight and feed consumption were determined at weekly intervals. A 5 ml blood sample was obtained from each bird at week no. 7 and stored at -20° C. until assayed for plasma hormones.
At week no. 7 (49 days-of-age), one-half of the birds (8 birds/treatment) were killed for measurement of the abdominal fat pad and liver weights. The muscles were removed, weighed, frozen in liquid N2 and stored at -20° C. until analyzed. At 51 days-of-age, groups of 4 birds per treatment were given a subcutaneous infusion of 4 μCi/Kg of 14C-L-tyrosine emulsified in sesame seed oil and immediately placed in metabolism cages. The expired CO2 was trapped in 15 ml of scrubbing solution (1:2 ethanolamine/methyl cellusolve) and the tubes were changed every 15 minutes for 90 minutes. At 90 minutes, the birds were removed from the metabolism cages and blood was obtained via cardiac puncture. Birds were then sacrificed by cervical dislocation and the muscles were removed, weighed, frozen in liquid N2 and stored at -20° C. until analyzed. Radioactivity in the samples containing trapped CO2 was counted for 10 minutes using a liquid scintillation spectrophotometer. At 54 days-of-age, groups of 4 birds per treatment were killed, the muscles were dissected, weighed, and frozen until analyzed.
The right breast muscle, i.e. BM (Pectoralis major) and right leg muscles, i.e. LM (gastrocnemius and peroneus longus) were dissected out from the birds, weighed and immediately frozen in liquid nitrogen and stored at -20° C. until analyzed for tyrosine content as specific radioactivity of tyrosine. All muscle tissues were analyzed for protein content; only tissues from isotope experiments were analyzed for tyrosine content as specific radioactivity of tyrosine.

[2] = Example 3: plasma hormone levels (RIA); assay type: in vivo, broiler cockerels
Procedure: Day-old broiler cockerels were randomly assigned to 24 pens (5 birds/pen) in a battery brooder. The total duration of the bird management period lasted from 7 to 8 weeks. […] 3, four birds from each pen were transferred to wire grow-out cages. […] Body weight and feed consumption were determined at weekly intervals. A 5 ml blood sample was obtained from each bird at week no. 7 and stored at -20° C. until assayed for plasma hormones.
Equilibrium, double antibodies radioimmunoassays (RIA) were used to determine plasma levels of chicken growth hormone (GH) according to Proudman, Proc. Soc. […] Plasma insulin was quantified by using nonequilibrium RIA described by McMurtry et al., Poult. […] Plasma level of insulin-like growth factor-I (IGF-I) was determined by heterologous RIA in accordance with McGuinness.

[3] = From the text: Referring now to broiler chickens as a benchmark for the beneficial effects of this invention, it must be noted that these chickens grow from a weight of 30 to 50 grams at hatching to about 1.5-3 or even as much as 5 kilograms of body weight at market age. Of this market weight, 15-20 wt.-% is protein, 2-3 wt.-% is inorganic (showing up as ash in proximate analysis of body composition), and more than 10 wt.-% (e.g. 10-20 wt.-%) is fat, which means that the protein:fat ratio (by weight) is likely to be at or below 1.5:1 and certainly well below 2:1.
[4] = test system: receptor; settings: cited from earlier work

N[C@@H](Cc1cc(I)c(Oc2ccc(O)c(I)c2)c(I)c1)C(=O)O [T3, 3,3',5-triiodo-L-thyronine]
relative weights of liver (RLW), right breast muscle (RBM), right leg muscle (RLM) ([1]; 0, 0.25, 1 and 4 ppm): not different among treatments | abdominal fat weight, reduction ([1]; 0.25 ppm): 22.2% and > 20% and 22% | effect on final body weight ([1]; 0.25 ppm): no significant adverse effect in final body weight; also recorded: do not appear to have a statistically significant effect upon final body weight | BW (final body weight) ([1]; 0.25 ppm of feed): 2.42 kg | RBM (right breast muscle) ([1]; 0.25 ppm of feed): 5.60 % BW | RLM (right leg muscle) ([1]; 0.25 ppm of feed): 0.71 % BW | RLW (relative liver weight) ([1]; 0.25 ppm of feed): 2.24 % BW | effect on final body weight ([1]; 1.0 ppm): significant sacrifice of final body weight | abdominal fat weight, reduction ([1]; 1.0 ppm (p<0.05)): 26.6% | Abdom. Fat ([1]; 1.0 ppm of feed): 1.88 % BW | BW (final body weight) ([1]; 1.0 ppm of feed): 2.33 kg | RBM (right breast muscle) ([1]; 1.0 ppm of feed): 5.36 % BW | RLM (right leg muscle) ([1]; 1.0 ppm of feed): 0.76 % BW | RLW (relative liver weight) ([1]; 1.0 ppm of feed): 2.14 % BW | effect on final body weight ([1]; 4.0 ppm): excessive loss of final body weight | abdominal fat weight, reduction ([1]; 4.0 ppm (p<0.05)): 63.3% | final body weight, reduction ([1]; 4.0 ppm (p<0.05)): 22.2% | Abdom. Fat ([1]; 4.0 ppm of feed): 0.94 % BW | BW (final body weight) ([1]; 4.0 ppm of feed): 1.99 kg | RBM (right breast muscle) ([1]; 4.0 ppm of feed): 5.81 % BW | RLM (right leg muscle) ([1]; 4.0 ppm of feed): 0.75 % BW | RLW (relative liver weight) ([1]; 4.0 ppm of feed): 2.18 % BW | glucagon secretion, increase ([2]; 0.25 ppm): 16% | plasma T3 level, fold elevation ([2]; 0.25 ppm): 2.1 fold | plasma insulin, reduction ([2]; 0.25 ppm): 27% | I/G ratio, reduction ([2]; 0.25 ppm (p<0.05)): 31% | I/G Ratio (molar) ([2]; 0.25 ppm of feed): 0.81 ± .20 | plasma GH ([2]; 0.25 ppm of feed): 2.0 ± 0.4 ng/mL | plasma Glucagon ([2]; 0.25 ppm of feed): 656 ± 75 pg/mL | plasma IGF-I ([2]; 0.25 ppm of feed): 100.7 ± 2.9 ng eg/ml | plasma Insulin ([2]; 0.25 ppm of feed): 772 ± 155 pg/mL | plasma T4 ([2]; 0.25 ppm of feed): 6.3 ± 0.6 ng/mL | effect on plasma IGF-1 level ([2]; 0.25 to 4.0 ppm): only reduced (p<0.05) by the 4.0 ppm level | I/G molar ratio, reduction ([2]; 1 or 4 ppm (p<0.05)): 70-76% | glucagon secretion, increase ([2]; 1.0 ppm (p<0.05)): 44% | plasma insulin, reduction ([2]; 1.0 ppm (p<0.05)): 60% | I/G Ratio (molar) ([2]; 1.0 ppm of feed): 0.35 ± .06 | plasma GH ([2]; 1.0 ppm of feed): 2.1 ± 0.4 ng/mL | plasma Glucagon ([2]; 1.0 ppm of feed): 816 ± 64 pg/mL | plasma IGF-I ([2]; 1.0 ppm of feed): 97.7 ± 6.3 ng eg/ml | plasma Insulin ([2]; 1.0 ppm of feed): 426 ± 65 pg/mL | plasma T4 ([2]; 1.0 ppm of feed): 6.2 ± 0.6 ng/mL | plasma T3 level, fold elevation ([2]; 4 ppm): 12.6 fold | glucagon secretion, increase ([2]; 4.0 ppm (p<0.05)): 46% | plasma insulin, reduction ([2]; 4.0 ppm (p<0.05)): 68% | Plasma T3 level (control group = 100% of normal) ([2]; 4 ppm in feed): ~ 1254% | I/G Ratio (molar) ([2]; 4.0 ppm of feed): 0.28 ± .08 | plasma GH ([2]; 4.0 ppm of feed): 1.8 ± 0.2 ng/mL | plasma Glucagon ([2]; 4.0 ppm of feed): 824 ± 61 pg/mL | plasma IGF-I ([2]; 4.0 ppm of feed): 58.8 ± 8.2 ng eg/ml | plasma Insulin ([2]; 4.0 ppm of feed): 344 ± 92 pg/mL | plasma T4 ([2]; 4.0 ppm of feed): 5.1 ± 0.8 ng/mL | effect on plasma GH levels ([2]; all dietary T3 levels): decreased (p<0.05); also recorded: decrease plasma GH levels | plasma T4 level, decrease ([2]; regardless of dose level (p<0.05)): 67% | effect on weight gain ([3]; 0.1 ppm): no significant adverse effect upon weight gain can be detected | protein content of the carcass relative to fat content ([3]; 0.1 ppm): improved relative to fat content | effect on growth rate ([3]; 0.25 ppm): virtually no statistically significant adverse effect on growth rate | effect on weight gain ([3]; 1 ppm): some deviation from normal weight gain is observed | metabolic activity of thyroid hormones [4]: most active compounds of formula I
